Values quoted from earlier work in US9333184B2, “Composition and method for affecting male and female hormone levels” (NOKOMIS RESEARCH, INC., priority 2011, dated 2016).

Conditions: for ingested amount metabolically degraded: intestine to blood stream

SMILES	ingested amount metabolically available	ingested amount metabolically degraded [%]
NCCCNCCCCNCCCN [spermine]	about 70%	30
NCCCCNCCCN [spermidine]	about 70%	30
